Legend:
IRAK1 [1] = biological target: T1, IRAK1 (Homo sapiens (Human), UniProt P51617); assay: Adapta kinase assay, IRAK1; assay type: biochemical; conditions: Adapta kinase assay format
Description: (§1) The IRAK1 and IRAK 4 IC50 values for various compounds disclosed herein generated from an Adapta® kinase assay format, and a Z′-LYTE™ kinases assay format, respectively, are shown in Table 1.

IRAK4 [2] = biological target: T2, IRAK4 (Homo sapiens (Human), UniProt Q9NWZ3); assay: Z'-LYTE kinase assay, IRAK4; assay type: biochemical; conditions: Z'-LYTE kinase assay format
Description: as §1

IRAK1 [3] = biological target: T1, IRAK1; assay: Immunoblotting, IRAK1 degradation in BCWM.1 cells; assay type: cell-based; conditions: overnight treatment
Description: (§2) The degradation of IRAK1 or IRAK4 proteins in BCWM.1 cells was determined by immunoblotting using BCWM.1 total cell lysates prepared following overnight treatment with IRAK1/4 degraders or inhibitors using anti-IRAK1 and anti-IRAK4 antibodies (Cell Signaling Technologies, Danvers Mass.). Anti-GAPDH antibody (Santa Cruz Biotechnology) was used for determination of protein loading.

IRAK4 [4] = biological target: T2, IRAK4; assay: Immunoblotting, IRAK4 degradation in BCWM.1 cells; assay type: cell-based; conditions: overnight treatment
Description: as §2

[5] = concentrations as high as 10 μM

T1 sequence (P51617 whole entry): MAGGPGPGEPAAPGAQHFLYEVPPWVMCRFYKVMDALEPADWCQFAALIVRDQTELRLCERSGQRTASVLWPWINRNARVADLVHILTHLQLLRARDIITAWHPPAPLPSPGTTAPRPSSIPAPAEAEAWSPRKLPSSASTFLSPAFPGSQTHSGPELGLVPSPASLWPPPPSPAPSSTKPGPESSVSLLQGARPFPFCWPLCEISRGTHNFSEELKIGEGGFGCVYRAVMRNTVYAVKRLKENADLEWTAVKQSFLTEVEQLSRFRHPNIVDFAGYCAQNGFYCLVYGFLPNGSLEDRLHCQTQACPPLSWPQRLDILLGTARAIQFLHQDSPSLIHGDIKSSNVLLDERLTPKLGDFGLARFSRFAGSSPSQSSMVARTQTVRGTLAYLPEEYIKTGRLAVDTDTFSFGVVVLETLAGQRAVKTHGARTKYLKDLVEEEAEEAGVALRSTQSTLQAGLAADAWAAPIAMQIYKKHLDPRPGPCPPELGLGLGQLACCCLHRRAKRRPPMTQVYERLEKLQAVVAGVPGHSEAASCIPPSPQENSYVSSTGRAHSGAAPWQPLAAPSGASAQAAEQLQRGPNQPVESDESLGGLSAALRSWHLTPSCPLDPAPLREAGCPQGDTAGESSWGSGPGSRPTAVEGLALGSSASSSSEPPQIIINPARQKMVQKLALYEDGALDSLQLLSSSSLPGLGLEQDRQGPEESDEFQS
T2 sequence (Q9NWZ3 whole entry): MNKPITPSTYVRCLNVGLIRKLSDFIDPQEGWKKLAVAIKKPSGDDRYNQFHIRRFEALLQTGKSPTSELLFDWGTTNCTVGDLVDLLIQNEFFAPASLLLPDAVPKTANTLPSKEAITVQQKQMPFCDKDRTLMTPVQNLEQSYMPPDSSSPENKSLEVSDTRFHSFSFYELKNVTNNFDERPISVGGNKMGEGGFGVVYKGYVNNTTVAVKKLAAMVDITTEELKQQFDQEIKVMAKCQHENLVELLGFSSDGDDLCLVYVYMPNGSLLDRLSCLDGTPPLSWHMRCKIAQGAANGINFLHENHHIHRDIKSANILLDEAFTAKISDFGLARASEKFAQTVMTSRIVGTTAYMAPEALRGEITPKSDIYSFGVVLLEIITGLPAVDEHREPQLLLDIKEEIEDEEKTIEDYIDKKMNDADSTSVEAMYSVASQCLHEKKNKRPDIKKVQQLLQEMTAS

| Compound | IC50 (IRAK1 [1]) [nM] | IC50 (IRAK4 [2]) [nM] | further results |
| --- | --- | --- | --- |
| O=C1CCC(N2C(=O)c3cccc(NCCOCCOCCOCCOCCC(=O)N4CCC(c5cc(NC(=O)c6cccc(-c7ccn[nH]7)n6)n(-c6ccccn6)n5)CC4)c3C2=O)C(=O)N1 (stereo not drawn) [Compound 1, N-(3-(1-(1-((2-(2,6-dioxopiperidin-3-yl)-1,3-dioxoisoindolin-4-yl)amino)-3,6,9,12-tetraoxapentadecan-15-oyl)piperidin-4-yl)-1-(pyridin-2-yl)-1H-pyrazol-5-yl)-6-(1H-pyrazol-5-yl)picolinamide] | 43 | 16 | degradation of IRAK1 protein (IRAK1 [3]; FIG. 4): degraded; degradation of IRAK4 protein (IRAK4 [4]; FIG. 4): degraded |
| O=C1CCC(N2C(=O)c3cccc(NCCOCCOCCC(=O)N4CCC(c5cc(NC(=O)c6cccc(-c7ccn[nH]7)n6)n(-c6ccccn6)n5)CC4)c3C2=O)C(=O)N1 (stereo not drawn) [Compound 2] | 42 | 44 |  |
| O=C1CCC(N2Cc3c(NCCOCCOCCC(=O)N4CCC(c5cc(NC(=O)c6cccc(-c7ccn[nH]7)n6)n(-c6ccccn6)n5)CC4)cccc3C2=O)C(=O)N1 (stereo not drawn) [Compound 3, N-(3-(1-(3-(2-(2-((2-(2,6-dioxopiperidin-3-yl)-1-oxoisoindolin-4-yl)amino)ethoxy)ethoxy)propanoyl)piperidin-4-yl)-1-(pyridin-2-yl)-1H-pyrazol-5-yl)-6-(1H-pyrazol-5-yl)picolinamide] | 40 | 18 |  |
| O=C1CCC(N2C(=O)c3cccc(OCCCCCCCCC(=O)N4CCC(c5cc(NC(=O)c6cccc(-c7ccn[nH]7)n6)n(-c6ccccn6)n5)CC4)c3C2=O)C(=O)N1 (stereo not drawn) [Compound 4, N-(3-(1-(9-((2-(2,6-dioxopiperidin-3-yl)-1,3-dioxoisoindolin-4-yl)oxy)nonanoyl)piperidin-4-yl)-1-(pyridin-2-yl)-1H-pyrazol-5-yl)-6-(1H-pyrazol-5-yl)picolinamide] | 212 | 142 |  |
| CN1C(=O)CCC(N2C(=O)c3cccc(NCCOCCOCCOCCOCCC(=O)N4CCC(c5cc(NC(=O)c6cccc(-c7ccn[nH]7)n6)n(-c6ccccn6)n5)CC4)c3C2=O)C1=O (stereo not drawn) [Compound C1] |  |  | degradation of IRAK1 protein (IRAK1 [3]; [5]): no degradation; degradation of IRAK4 protein (IRAK4 [4]; [5]): no degradation |
| CC(C)N1CCC(c2cc(NC(=O)c3cccc(-c4ccn[nH]4)n3)n(-c3ccccn3)n2)CC1 [TL1, reference compound] | 7 | 3 | effect on IRAK1 protein levels (IRAK1 [3]; concentration of 10 μM): no effect; effect on IRAK4 protein levels (IRAK4 [4]; concentration of 10 μM): no effect |
| C=CC(=O)Nc1cccc(C(=O)Nc2ccc(NC(=O)c3cccc(-c4ccn[nH]4)n3)cc2)c1 [TL2, reference compound] | 9 | > 10000 |  |

Reference: patent US11542251B2, “IRAK degraders and uses thereof” (DANA-FARBER CANCER INSTITUTE, INC., priority 2018, dated 2023)
